The subject of data set [1] is deoxymyoglobin (deoxy-Mb). Put plainly: Release of CO from metal carbonyl complexes (myoglobin assay / CO electrode). Type of data set: physicochemical. The procedure:
The release of CO from metal carbonyl complexes was assessed spectrophotometrically by measuring the conversion of deoxymyoglobin (deoxy-Mb) to carbonmonoxymyoglobin (MbCO). MbCO has a distinctive absorption spectrum between 500 and 600 nm, and changes at 540 nm were used to quantify the amount of CO liberated. Myoglobin solutions were prepared freshly by dissolving a known concentration of the protein in phosphate buffer, which was also made up to a known concentration and pH. Sodium dithionite (0.1%) was added to convert myoglobin to deoxy-Mb prior to each reading. The CORM was dissolved in the solvent specified in the solubility column of the table of FIGS. 1a-1k, before addition to the myoglobin solution.
The release of CO from metal carbonyl complexes was also detected using a prototype electrode purchased from World Precision Instrument (Stevenage, Herts, UK). The CO electrode is a membrane-covered amperometric sensor which has been designed on a basic operating principle similar to the nitric oxide (NO) sensor. In fact, the CO sensor can be connected to the ISO-NO Mark II meter for detection of the current signals providing that the poise potential is set to a different value (900 mV for CO as opposed to 860 mV for NO). In principle, CO diffuses through the gas permeable membrane and is then oxidized to CO2 on the working electrode. This oxidation will create a current whose magnitude can be related directly to the concentration of CO in solution. The CO sensor was used to generate standard curves and calculate the rates of CO release from a CORM compound at different pHs and temperatures. The electrode was immersed into the solutions at different pHs and equilibrated for 30 min prior to addition of the CORM compound. The experiments were maintained at the desired temperature using a Grant W6 thermostat (Cambridge). This method is described in the applicants' earlier publication WO 2005/114161.
Slow release rates (half-life >200 minutes) are indicated for the comparative compounds, while rapid release rates (half-life <50 minutes) were found for compounds within the invention. […] Compounds having three carbonyl ligands released CO slowly, as did compounds in which a carbon or a nitrogen atom of the ligand bond to the manganese. Slow release is also found for the compound (CORM 325) having Mn—Mn bonding.

A short description of the next data set: Solubility information. The data set is classed as physicochemical. From the text: Uncharged complexes, such as CORM 378, can be made water soluble by the presence of suitable ligands.
Another data set deals with RAW264.7 macrophages. The data set is described as follows: Anti-inflammatory action in LPS-stimulated RAW264.7 macrophages (nitrite, Griess method). The data set is classed as cell-based, mouse. The note with it: 24 h, 10, 50 or 100 μM compound, LPS 1 μg/ml. The procedure:
(2) The anti-inflammatory action was measured in RAW264.7 macrophages incubated for 24 h with 10, 50 or 100 μM of each compound in the presence or absence of Lipopolysaccharide (LPS) (1 μg/ml). Nitrite was used as an indicator of inflammation. * indicates a reduction in inflammation detected at 100 μM; ** indicates a reduction in inflammation detected at 50 μM; *** indicates a reduction in inflammation detected at 10 μM; “None” indicates there was no effect of the compound on inflammation; N.P. indicates assay not performed.
Murine RAW264.7 monocyte macrophages were purchased from the European Collection of Cell Cultures (Salisbury, Wiltshire, UK) and cultured in Dulbecco's modified Eagle's medium (DMEM) supplemented' with 10% fetal bovine serum, 2 mM L-glutamine, 100 units ml^−1 penicillin and 0.1 mg ml^−1 streptomycin. […] Macrophages were exposed for 24 hr to LPS (1 μg ml^−) in the presence or absence of CORMs (10, 50 and 100 μM) and nitrite levels and cytotoxicity were determined at the end of the incubation. Nitrite levels were determined using the Griess method as previously described (Foresti et al. J. Biol. Chem. 272, 18411-18417, (1997)). […] The Griess reagent was added to each well to begin the reaction, the plate was shaken for 10 min and the absorbance read at 550 nm on a Molecular Devices VERSAmax plate reader. […]

The next data set deals with isolated aortic rings. Put plainly: Vasorelaxation of pre-contracted isolated rat aortic rings. Also noted: species or system Sprague-Dawley rats. The note with it: for Contraction of pre-contracted aortic rings after addition of compound: varying concentrations, FIG. 3(a), 3(b). The method, then:
(3) The experiments using the isolated aortic rings were conducted to assess the extent of vasorelaxation. One hundred micromolar (100 μM) of each compound were added to a pre-contracted ring and vasorelaxation was assessed as a percentage of the initial contraction, which was expressed as good (+) or very good (++).
Vasodilatation data for CORM 371 and CORM 376 was measured as described previously by the inventors in their earlier publication, WO 2004/045599. This is described in more detail below.
The method for the preparation of isolated aortic rings has been previously described (Sammut et al Br J Pharmacol 125: 1437-1444, 1998; Motterlini et al Circ Res 90: E17-E24, 2002). The thoracic aorta was isolated from Sprague-Dawley rats (350-450 g) and flushed with cold Krebs-Henseleit buffer (4° C., pH 7.4) containing (in mM): 118 NaCl, 4.7 KCl, […], 1.2 MgSO4.7H2O, 22 NaHCO3, 11 Glucose, 0.03 K^+EDTA, 2.5 CaCl2 and supplemented with 10 μM indomethacin. Each aorta was trimmed of adventitial tissue and ring, sections (˜3 mm length) were produced from the mid aortic segment. The rings were then mounted between two stainless steel hooks in 9-mL organ baths containing Krebs-Henseleit buffer which was maintained at 37° C. and continuously gassed with 95% O2-5% CO2. One hook was attached to a Grass FT03 isometric force transducer whilst the other was anchored to a sledge for regulation of the resting tension of the aortic ring. The rings were initially equilibrated for 30 min under a resting tension of 2 g which was previously determined to be optimal. Continuous recording of tension was made on a Grass 7D polygraph (Grass Instruments, Quincy, Mass.) in combination with a Biopac MP100 system using AcqKnowledge™ software (Linton Instruments, Norfolk, UK). Before each protocol was carried out, rings were contracted with a standard dose of KCl (100 mM) in order to provide an internal reference and to control for variability in contractile responsiveness between tissues. The relaxation response to CORM-3 (25 μM) in the presence or absence of YC-1 (5 μM final concentration, 30 min pre-incubation) was assessed in aortic rings pre-contracted with phenylephrine (1 μmol/L).

Regarding `O=[C]=[Mn]([Br])(=[C]=O)(=[C]=O)(=[C]=O)=[C]=O` [CORM 309, [MnBr(CO)5]], the “CO release rate (in words)” value in data set [1] is reported as “much longer CO release times”.

For `O=[C]=[Mn]([I])(=[C]=O)(=[C]=O)(=[C]=O)=[C]=O` [CORM 310, [MnI(CO)5]], in data set [1], the “CO release rate (in words)” value is listed as “much longer CO release times”.

As to `[C-]#[O+].[C-]#[O+].[C-]#[O+].[C-]#[O+].[C-]#[O+].[Cl][Mn]` [CORM 318, [MnCl(CO)5]], the “CO release rate (in words)” value in data set [1] is “much longer CO release times”.

For `[C-]#[O+].[C-]#[O+].[C-]#[O+].[C-]#[O+].[C-]#[O+].[C-]#[O+].[C-]#[O+].[C-]#[O+].c1ccc([PH]([Mn][Mn][PH](c2ccccc2)(c2ccccc2)c2ccccc2)(c2ccccc2)c2ccccc2)cc1` [CORM 325, [Mn(CO)4(PPh3)]2], the “CO release rate (in words)” value in data set [1] is given as “Slow release”.

Consider `OCCN(CCO)C(=S)[S-].[C-]#[O+].[C-]#[O+].[C-]#[O+].[C-]#[O+].[Mn+]` [CORM 378, Mn(CO)4(η^2-S2CN{CH2CH2OH}2)], for which, in “Solubility information”, the Solubility in water entry is “water soluble”.

`C[N+](C)(C)C.O=C([O-])c1ccccc1.O=C([O-])c1ccccc1.O=C([O-])c1ccccc1.[C-]#[O+].[C-]#[O+].[C-]#[O+].[C-]#[O+].[C-]#[O+].[C-]#[O+].[Mn+].[Mn+]` [CORM 379, [Me4N][Mn2(CO)6(benzoate)3]]: the “CO release rate (in words)” value in data set [1] is reported as “rapid CO release”. For the same compound, in the data set on RAW264.7 macrophages, the “Anti-inflammatory action (nitrite as indicator of inflammation)” value is given as “did not do so”.

`CC(=O)[S-].CC(=O)[S-].C[N+](C)(C)C.[C-]#[O+].[C-]#[O+].[C-]#[O+].[C-]#[O+].[Mn+]` [CORM-371, [Me4N][Mn(CO)4(thioacetate)2]]: in the data set with isolated aortic rings, the “Vasodilator activity in the aortic rings model” value was “good vasodilators” and the “Contraction of pre-contracted aortic rings after addition of compound” value is recorded as “concentration-dependent decrease in contraction”.

With “[K][(OC)3Mn(μ-OCOCH3)3Mn(CO)3] [CORM-376]”, in the data set on isolated aortic rings, the “Vasodilator activity in the aortic rings model” value is “good vasodilators” and the “Contraction of pre-contracted aortic rings after addition of compound” value is on record as “concentration-dependent decrease in contraction”. For the same compound, the “Dilatation in presence of glibenclimide (inhibition of ATP-dependent K+ channels)” value in the data set with isolated aortic rings (glibenclimide at two different concentrations, FIG. 3(c)) is “did not affect”. In the data set on isolated aortic rings (with ODQ, FIG. 3(c)), the “Vasorelaxation in presence of guanylate cyclase inhibitor ODQ” value is on record as “significantly prevented”.

In the case of [Me4N][Mn(CO)4(Malonate)] [CORM 350], the “CO release rate (in words)” value in data set [1] is recorded as “rapid CO release”. The “Anti-inflammatory action (nitrite as indicator of inflammation)” value in the data set with RAW264.7 macrophages is recorded as “did not do so”.

The values above are taken from patent US20100105770A1, “Therapeutic delivery of carbon monoxide” (priority 2006, published 2010).
